This note sets out measurements from US8802672B2, “Pyrimidinyl-piperazines useful as D3/D2 receptor ligands” (Richter Gedeon Nyrt., priority 2007, dated 2014).

Each structure is given as a SMILES string.

Data set [1] deals with adrenergic alpha-1 receptors (rat cortical membrane preparation). Description: Alpha-1 receptor binding. The conditions noted are these: [3H]-prazosine, rat cortical membranes; read-out: α-1 Ki.
Protocol: The non-specific binding was determined in the presence of 10 μM phentolamine.
Data set [2] has as its target rat recombinant D3 receptors (Rattus norvegicus (Rat), UniProt P19020). The experiment in a line: D3 receptor binding. The conditions noted are these: for Ki: [3H]spiperone, rat recombinant D3 in Sf9 cells.
For data set [3], the target named is D2 receptor (rat brain striatal membrane preparation) (Rattus norvegicus (Rat), UniProt P61169). The experiment in a line: D2 receptor binding. The conditions noted are these: [3H]spiperone, rat striatal membranes.
Protocol: Non-specific binding was determined in the presence of 1 μM (+) butaclamol.
Data set [4] deals with male Wistar rats. The experiment in a line: Amphetamine-induced hypermotility. The conditions noted are these: oral, rat, d-amphetamine 0.5 mg/kg sc.; for ED50: read-out: Inhibition of amphetamine-induced hypermotility (ED50). The format is in vivo. The procedure: 4. Amphetamine-Induced Hypermotility
One hour after the oral administration of doses of the test compound or vehicle, male Wistar rats were subcutaneously treated with d-amphetamine (0.5 mg/kg, sc.) and were individually placed in activity cages for one hour. Locomotor activity was measured in a four-channel activity monitor equipped with infrared photobeams Horizontal movement was determined as the number of beam interruptions. Mean±SE of horizontal activity data of each group was calculated. Percent inhibition of amphetamine-induced increase in locomotion was calculated for each dose of the tested compound. The ED-50 value was determined by linear regression fitted to the dose-response plot.

The test system of data set [5] is male Wistar rats. The experiment in a line: Catalepsy test. The format is in vivo. The conditions noted are these: rat; for Catalepsy (MED): oral, minimum effective cataleptic dose; for TI, therapeutic index - catalepsy MED divided by amphetamine hypermotility ED50: in vivo.
Protocol: Thirty minutes after the oral treatment with the test compounds male Wistar rats weighing 200-220 g (n=10/group) were placed in extra-ordinary position: placing both forepaws of the rat on a 10 cm high podium. […] The frequency of cataleptic animals was determined at one, two, three, four and five hours after the treatment. Minimum effective (cataleptic) dose was defined as the dose causing catalepsy at least at two readings (i.e. either at two time points in the same animal or in two different animals at any of the time points).
In data set [6] the test system is male Wistar rats. The experiment in a line: Scopolamine-induced learning disturbance in the water-labyrinth. The format is in vivo, rat. The procedure: 6. Scopolamine-Induced Learning Disturbance in the Water-Labyrinth
The learning process of rats was assessed in a 3-choice point water-labyrinth system. The number of directional turning errors was recorded in three daily trials for three experimental days. Male Wistar rats weighing 180-200 g (n=10 per groups) were treated orally with vehicle or the test compounds 1 hour before each daily session. Scopolamine (3 mg/kg ip.) as amnestic agent was injected 30 minutes prior to the first daily trial. Mean±SE of errors committed in all the trials was calculated in each group. Percent inhibition of scopolamine-induced increase in the number of errors was calculated for each dose of the tested compound.

Sequence of D2 receptor (rat brain striatal membrane preparation) (P61169 whole entry): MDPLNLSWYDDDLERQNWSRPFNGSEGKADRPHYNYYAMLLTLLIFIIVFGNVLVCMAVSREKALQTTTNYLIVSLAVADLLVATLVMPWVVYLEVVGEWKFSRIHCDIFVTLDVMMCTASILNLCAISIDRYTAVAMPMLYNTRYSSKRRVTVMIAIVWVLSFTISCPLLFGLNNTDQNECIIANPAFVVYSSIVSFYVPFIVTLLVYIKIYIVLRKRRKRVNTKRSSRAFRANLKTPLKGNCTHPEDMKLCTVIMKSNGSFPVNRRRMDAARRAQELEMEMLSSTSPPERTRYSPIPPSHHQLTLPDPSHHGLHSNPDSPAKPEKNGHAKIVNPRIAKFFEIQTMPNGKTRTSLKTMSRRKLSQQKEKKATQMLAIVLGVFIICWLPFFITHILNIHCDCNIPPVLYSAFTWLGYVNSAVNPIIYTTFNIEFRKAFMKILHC
Sequence of rat recombinant D3 receptors (P19020 whole entry): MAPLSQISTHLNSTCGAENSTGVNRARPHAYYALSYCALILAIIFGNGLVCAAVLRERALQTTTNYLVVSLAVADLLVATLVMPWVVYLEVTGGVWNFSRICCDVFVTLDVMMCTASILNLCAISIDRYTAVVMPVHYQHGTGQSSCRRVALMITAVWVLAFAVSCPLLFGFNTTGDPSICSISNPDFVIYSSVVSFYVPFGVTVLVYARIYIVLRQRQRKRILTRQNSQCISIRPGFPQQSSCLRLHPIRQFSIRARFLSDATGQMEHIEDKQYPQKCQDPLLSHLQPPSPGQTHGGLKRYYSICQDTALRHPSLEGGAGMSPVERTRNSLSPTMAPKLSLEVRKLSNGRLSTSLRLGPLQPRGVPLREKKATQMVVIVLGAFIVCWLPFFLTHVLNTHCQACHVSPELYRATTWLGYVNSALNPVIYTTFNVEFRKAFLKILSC

As a reminder, the Ki is a dissociation constant, usually derived from enzyme kinetics or from competition with a known ligand. For the compound `CNc1nc(Cl)c(Cl)c(N2CCN(CC[C@H]3CC[C@H](NC(=O)N4CCOCC4)CC3)CC2)n1` [Compound 7, trans-morpholine-4-carboxylic acid (4-{2-[4-(5,6-dichloro-2-methylamino-pyrimidin-4-yl)-piperazin-1-yl]-ethyl}-cyclohexyl)-amide], in data set [1], the inhibitory constant (Ki) was > 1000 nM.
With `CNc1nc(Cl)c(Cl)c(N2CCN(CC[C@H]3CC[C@H](NC(=O)N(C)C)CC3)CC2)n1` [Compound 8], the “Sel. = D2/D3 selectivity, Ki for D2 receptor divided by Ki for D3 receptor” value in data set [2] is on record as 7. The Ki is 1 to 3 nM in data set [2], 15 to 50 nM in data set [3] and > 1000 nM in data set [1]. The “Inhibition of amphetamine-induced hypermotility (ED50)” value in data set [4] amounted to 0.14 mg/kg. Also, the “Catalepsy (MED)” value in data set [5] is >25 mg/kg. Also, in data set [5], the “TI, therapeutic index - catalepsy MED divided by amphetamine hypermotility ED50” value is recorded as >179. Further, the “% inhibition of scopolamine-induced learning disturbance” value (“% inhibition” for short) is recorded as 38% in data set [6] (dose 0.025 mg/kg oral), 65% in data set [6] (dose 0.05 mg/kg oral) and 31% in data set [6] (dose 1 mg/kg oral).
Usually ED50 stands for the midpoint of the dose-response relation. `Cc1nc2n(c(=O)c1CCN1CCC(c3noc4cc(F)ccc34)CC1)CCCC2` [Risperidone, reference compound]: the ED50 in data set [4] was found to be 0.15 mg/kg. In addition, in data set [6] (dose 0.5 mg/kg oral), the “% inhibition” value was −15%.
Turning to `CCC(=O)N[C@H]1CC[C@H](CCN2CCN(c3nc(NC)nc(Cl)c3Cl)CC2)CC1` [Compound 11], the “Sel. = D2/D3 selectivity, Ki for D2 receptor divided by Ki for D3 receptor” value in data set [2] stood at 43. Besides, the inhibition constant Ki is < 1 nM in data set [2], 5 to 15 nM in data set [3] and > 1000 nM in data set [1].
As for `CCNc1nc(Cl)c(Cl)c(N2CCN(CC[C@H]3CC[C@H](NC(C)=O)CC3)CC2)n1` [Compound 6, trans-N-(4-{2-[4-(5,6-dichloro-2-ethylamino-pyrimidin-4-yl)-piperazin-1-yl]-ethyl}-cyclohexyl)-acetamide], the “Sel. = D2/D3 selectivity, Ki for D2 receptor divided by Ki for D3 receptor” value in data set [2] worked out at 23. Further, the Ki in data set [1] is > 1000 nM.
Take `Cc1cc2c(s1)Nc1ccccc1N=C2N1CCN(C)CC1` [Olanzapine, reference compound]: in data set [4], the ED50 amounted to 1.8 mg/kg. The results for the “% inhibition” value in data set [6] (dose 1 mg/kg oral) and in data set [6] (dose 3 mg/kg oral) were −12% and −49%, respectively.
On to `CNc1nc(Cl)c(Cl)c(N2CCN(CC[C@H]3CC[C@H](NC(N)=O)CC3)CC2)n1` [Compound 2, Trans-(4-{2-[4-(5,6-dichloro-2-methylamino-pyrimidin-4-yl)-piperazin-1-yl]-ethyl}-cyclohexyl)-urea], for which, in data set [2], the “Sel. = D2/D3 selectivity, Ki for D2 receptor divided by Ki for D3 receptor” value stood at 27. In data set [1], the Ki is > 1000 nM.
With `CCNC(=O)N[C@H]1CC[C@H](CCN2CCN(c3nc(NC)nc(Cl)c3Cl)CC2)CC1` [Compound 10, Trans-1-(4-{2-[4-(5,6-dichloro-2-methylamino-pyrimidin-4-yl)-piperazin-1-yl]-ethyl}-cyclohexyl)-3-ethyl-urea], the “Sel. = D2/D3 selectivity, Ki for D2 receptor divided by Ki for D3 receptor” value in data set [2] is listed as 17.
As to `CNc1nc(Cl)c(Cl)c(N2CCN(CC[C@H]3CC[C@H](NC(C)=O)CC3)CC2)n1` [Compound 1, Trans-N-(4-{2-[4-(5,6-dichloro-2-methylamino-pyrimidin-4-yl)-piperazin-1-yl]-ethyl}-cyclohexyl)-acetamide], in data set [2], the “Sel. = D2/D3 selectivity, Ki for D2 receptor divided by Ki for D3 receptor” value worked out at 22 and the Ki is < 1 nM. Further, the Ki in data set [3] lay in the range of 15 to 50 nM. In addition, in data set [5], the “Catalepsy (MED)” value stood at 100 mg/kg and the “TI, therapeutic index - catalepsy MED divided by amphetamine hypermotility ED50” value is listed as 714.
